Key:
[1] = tested on: Japanese millet (Echinochloa crus-galli, ECHCF); assay: Greenhouse test of herbicidal effectiveness (percent inhibition) on Japanese millet; format: in vivo
Source text: (§1) The herbicidal effectiveness data set forth herein report “inhibition” as a percentage following a standard procedure in the art which reflects a visual assessment of plant mortality and growth reduction by comparison with untreated plants, made by technicians specially trained to make and record such observations. In all cases, a single technician makes all assessments of percent inhibition within any one experiment or trial. Such measurements are relied upon and regularly reported by Monsanto Company in the course of its herbicide business.
(§2) The following procedure was used for testing compositions of the Examples to determine herbicidal effectiveness, except where otherwise indicated.
(§3) Seeds of the plant species indicated were planted in 85 mm square pots in a soil mix which was previously steam sterilized and prefertilized with a 14-14-14 NPK slow release fertilizer at a rate of 3.6 kg/m3. The pots were placed in a greenhouse with subirrigation. About one week after emergence, seedlings were thinned as needed, including removal of any unhealthy or abnormal plants. to create a uniform series of test pots.
(§4) The plants were maintained for the duration of the test in the greenhouse where they received a minimum of 14 hours of light per day. If natural light was insufficient to achieve the daily requirement, artificial light with an intensity of approximately 475 microeinsteins was used to make up the difference. Exposure temperatures were not precisely controlled but averaged about 27° C. during the day and about 18° C. during the night. Plants were sub-irrigated throughout the test to ensure adequate soil moisture levels.
(§5) A set of pots was left untreated as a reference against which effects of the treatments could later be evaluated.
(§6) Application of glyphosate compositions was made by spraying with a track sprayer fitted with a 9501E nozzle calibrated to deliver a spray volume of 93 liters per hectare (l/ha) at a pressure of 166 kilopascals (kPa). After treatment, pots were returned to the greenhouse until ready for evaluation.
(§7) Treatments were made using dilute aqueous compositions. These could be prepared as spray compositions directly from their ingredients, or by dilution with water of preformulated concentrate compositions.
(§8) For evaluation of herbicidal effectiveness, all plants in the test were examined by a single practiced technician, who recorded percent inhibition, a visual measurement of the effectiveness of each treatment by comparison with untreated plants.

[2] = tested on: Prickly sida (Sida spinosa, SIDSP); assay: Greenhouse test of herbicidal effectiveness (percent inhibition) on prickly sida; format: in vivo; details: for % Inhibition SIDSP: evaluation 10 days after application
Source text: as §1, §2, §3, §4, §5, §6, §7, §8

[3] = tested on: Velvetleaf (Abutilon theophrasti, ABUTH); assay: Greenhouse test of herbicidal effectiveness (percent inhibition) on velvetleaf; format: in vivo
Source text: as §1, §2, §3, §4, §5, §6, §7, §8

ABUTH and ECHCF = assay: Greenhouse test, herbicidal effectiveness overall on both species of the Example; format: in vivo, Abutilon theophrasti, Echinochloa crus-galli; details: post-emergence foliar spray 93 l/ha, comparison as worded in the discussion of the Example
Protocol: The following procedure was used for testing compositions of the Examples to determine herbicidal effectiveness, except where otherwise indicated. […] The pots were placed in a greenhouse with subirrigation. About one week after emergence, seedlings were thinned as needed, including removal of any unhealthy or abnormal plants. to create a uniform series of test pots. The plants were maintained for the duration of the test in the greenhouse where they received a minimum of 14 hours of light per day. […] Exposure temperatures were not precisely controlled but averaged about 27° C. during the day and about 18° C. during the night. Plants were sub-irrigated throughout the test to ensure adequate soil moisture levels. Pots were assigned to different treatments in a fully randomized experimental design with 3 replications. A set of pots was left untreated as a reference against which effects of the treatments could later be evaluated. […] After treatment, pots were returned to the greenhouse until ready for evaluation. Treatments were made using dilute aqueous compositions. […] For evaluation of herbicidal effectiveness, all plants in the test were examined by a single practiced technician, who recorded percent inhibition, a visual measurement of the effectiveness of each treatment by comparison with untreated plants.

[4] = tested on: Common lambsquarter (Chenopodium album, CHEAL); assay: Greenhouse test of herbicidal effectiveness (percent inhibition) on common lambsquarter; format: in vivo; details: Example 20; 18 days after application
Source text: as §2, §3
(§9) The plants were maintained for the duration of the test in the greenhouse where they received a minimum of 14 hours of light per day. […]
as §5
as §6, with “evaluation. […]” for “evaluation.”
as §8

[5] = tested on: Hemp sesbania (Sesbania exaltata, SEBEX); assay: Greenhouse test of herbicidal effectiveness (percent inhibition) on hemp sesbania; format: in vivo; details: Example 18; 21 days after application
Source text: as §2, §3, §9, §5
as §6, with “evaluation. […]” for “evaluation.”
as §8

[6] = acifluorfen rate 25 g a.i./ha, evaluation 10 days after application
[7] = acifluorfen rate 50 g a.i./ha, evaluation 10 days after application
[8] = acifluorfen rate 100 g a.i./ha, evaluation 10 days after application
[9] = acifluorfen rate 200 g a.i./ha, evaluation 10 days after application
[10] = dicamba rate 25 g a.i./ha, evaluation 17 days after application
[11] = dicamba rate 50 g a.i./ha, evaluation 17 days after application
[12] = dicamba rate 100 g a.i./ha, evaluation 17 days after application
[13] = dicamba rate 200 g a.i./ha, evaluation 17 days after application

**Q.** `C[N+](C)(C)CCCNS(=O)(=O)C(F)(F)C(F)(F)C(F)(F)C(F)(F)C(F)(F)C(F)(F)C(F)(F)C(F)(F)F.[I-]` [Fluorad FC-135, 3-(((heptadecafluorooctyl)sulfonyl)amino)-N,N,N-trimethyl-1-propaminium iodide] was tested. Which “concentration of Fluorad FC-135 added in tank-mix to Formulation B to bring its herbicidal performance up to that of Formulation C” value (shortened to “concentration of Fluorad FC-135 added”) ([1]; Example 21, ECHCF, evaluation 20 days after application) did it give?
**A.** Its value is “approximately 0.25%”.

**Q.** What about the optimum adjuvant concentration ([1]; Example 25, tank-mix adjuvant for glyphosate as Formulation B, ECHCF, 21 days after application) of the same molecule?
**A.** The optimum adjuvant concentration was 0.2%.

**Q.** And the “concentration of Fluorad FC-135 added” value ([2]; Example 21, SIDSP, evaluation 20 days after application)?
**A.** Its value is roughly 0.1%.

**Q.** And the “concentration of Fluorad FC-135 added” value ([3]; Example 21, ABUTH, evaluation 20 days after application)?
**A.** Its value is roughly 0.02%.

**Q.** And the optimum adjuvant concentration ([3]; Example 25, tank-mix adjuvant for glyphosate as Formulation B, ABUTH, 21 days after application)?
**A.** Its optimum adjuvant concentration is 0.2%.

**Q.** For `COC(=O)NS(=O)(=O)c1ccc(N)cc1` [Asulam (technical)], which “% Inhibition ECHCF” value ([1]; asulam rate 200 g a.i./ha, evaluation 14 days after application) is on record?
**A.** The value was 12%.

**Q.** Which “herbicidal effectiveness overall (ABUTH and ECHCF), result in words” value (ABUTH and ECHCF) does the source give for Steareth-20 here?
**A.** The value was “more effective additives for Formulation B than steareth-10”.

**Q.** ceteareth-30 was tested. Which “herbicidal effectiveness overall (ABUTH and ECHCF), result in words” value (ABUTH and ECHCF) did it give?
**A.** The value was “more effective additives for Formulation B than steareth-10”.

**Q.** `O=C(O)CNCP(=O)(O)O` [glyphosate, N-phosphonomethylglycine] was tested. Which “herbicidal activity on CHEAL, result in words” value [4] did it give?
**A.** Its value is “very weak”.

**Q.** What about the “herbicidal activity on SEBEX, result in words” value [5] of the same molecule?
**A.** Its value is “extremely weak”.

**Q.** Which “% Inhibition ECHCF” value [1, 6] does the source give for `O=C(O)c1cc(Oc2ccc(C(F)(F)F)cc2Cl)ccc1[N+](=O)[O-]` [Acifluorfen (technical)] here?
**A.** The value was 2%.

**Q.** What about the “% Inhibition ECHCF” value [1, 7] of the same molecule?
**A.** The value was 7%.

**Q.** What about the “% Inhibition ECHCF” value [1, 8] of the same molecule?
**A.** Its value is 18%.

**Q.** What about the “% Inhibition ECHCF” value [1, 9] of the same molecule?
**A.** The value was 35%.

**Q.** What about the “% Inhibition SIDSP” value ([2]; acifluorfen rate 25 g a.i./ha) of the same molecule?
**A.** The value was 15%.

**Q.** What about the “% Inhibition SIDSP” value ([2]; acifluorfen rate 50 g a.i./ha) of the same molecule?
**A.** The value was 17%.

**Q.** And the “% Inhibition SIDSP” value ([2]; acifluorfen rate 100 g a.i./ha)?
**A.** Its value is 35%.

**Q.** What about the “% Inhibition SIDSP” value ([2]; acifluorfen rate 200 g a.i./ha) of the same molecule?
**A.** The value was 40%.

**Q.** And the “% Inhibition ABUTH” value [3, 6]?
**A.** The value was 20%.

**Q.** And the “% Inhibition ABUTH” value [3, 7]?
**A.** The value was 32%.

**Q.** What about the “% Inhibition ABUTH” value [3, 8] of the same molecule?
**A.** The value was 52%.

**Q.** And the “% Inhibition ABUTH” value [3, 9]?
**A.** The value was 62%.

**Q.** What does the source list for `COc1c(Cl)ccc(Cl)c1C(=O)O` [Dicamba (technical)]?
**A.** % Inhibition ECHCF [1, 10]: 0%; % Inhibition ECHCF [1, 11]: 0%; % Inhibition ECHCF [1, 12]: 0%; % Inhibition ECHCF [1, 13]: 5%; % Inhibition ABUTH [3, 10]: 47%; % Inhibition ABUTH [3, 11]: 63%; % Inhibition ABUTH [3, 12]: 82%; % Inhibition ABUTH [3, 13]: 93%

**Q.** How did the inhibition at 25 g/ha ([1]; Echinochloa crus-galli, 288 h, Table 82, paraquat rate 25 g a.i./ha, evaluation 12 days after application) turn out when `C[n+]1ccc(-c2cc[n+](C)cc2)cc1` [Paraquat dichloride] was run?
**A.** The inhibition at 25 g/ha was 83%.

**Q.** What about the inhibition at 50 g/ha ([1]; Echinochloa crus-galli, 288 h, Table 82, paraquat rate 50 g a.i./ha, evaluation 12 days after application) of the same molecule?
**A.** The inhibition at 50 g/ha was 78%.

**Q.** And the inhibition at 100 g/ha ([1]; Echinochloa crus-galli, 288 h, Table 82, paraquat rate 100 g a.i./ha, evaluation 12 days after application)?
**A.** The inhibition at 100 g/ha was 84%.

**Q.** What about the inhibition at 200 g/ha ([1]; Echinochloa crus-galli, 288 h, Table 82, paraquat rate 200 g a.i./ha, evaluation 12 days after application) of the same molecule?
**A.** The inhibition at 200 g/ha was 95%.

**Q.** What about the inhibition at 25 g/ha ([2]; Sida spinosa, 288 h, Table 82, paraquat rate 25 g a.i./ha, evaluation 12 days after application) of the same molecule?
**A.** The inhibition at 25 g/ha was 55%.

**Q.** What about the inhibition at 50 g/ha ([2]; Sida spinosa, 288 h, Table 82, paraquat rate 50 g a.i./ha, evaluation 12 days after application) of the same molecule?
**A.** The inhibition at 50 g/ha was 60%.

**Q.** What about the inhibition at 100 g/ha ([2]; Sida spinosa, 288 h, Table 82, paraquat rate 100 g a.i./ha, evaluation 12 days after application) of the same molecule?
**A.** Its inhibition at 100 g/ha is 69%.

**Q.** And the inhibition at 200 g/ha ([2]; Sida spinosa, 288 h, Table 82, paraquat rate 200 g a.i./ha, evaluation 12 days after application)?
**A.** The inhibition at 200 g/ha was 99%.

**Q.** What about the inhibition at 25 g/ha ([3]; Abutilon theophrasti, 288 h, Table 82, paraquat rate 25 g a.i./ha, evaluation 12 days after application) of the same molecule?
**A.** Its inhibition at 25 g/ha is 50%.

**Q.** And the inhibition at 50 g/ha ([3]; Abutilon theophrasti, 288 h, Table 82, paraquat rate 50 g a.i./ha, evaluation 12 days after application)?
**A.** Its inhibition at 50 g/ha is 57%.

**Q.** What about the inhibition at 100 g/ha ([3]; Abutilon theophrasti, 288 h, Table 82, paraquat rate 100 g a.i./ha, evaluation 12 days after application) of the same molecule?
**A.** The inhibition at 100 g/ha was 73%.

**Q.** What about the inhibition at 200 g/ha ([3]; Abutilon theophrasti, 288 h, Table 82, paraquat rate 200 g a.i./ha, evaluation 12 days after application) of the same molecule?
**A.** The inhibition at 200 g/ha was 85%.

— US6407042B1 (Monsanto Technology LLC, priority 1996, dated 2002)
